# Results as given in patent US9320734B2, “Small molecule inhibitors of the pleckstrin homology domain and methods for using same” (Board of Regents, The University of Texas System, priority 2008, dated 2016).
# Legend:
# [1] = tested on: phospho-Ser473-AKT in Panc-1 cells; assay: Cellular AKT inhibition, Western blot phospho-Ser473-AKT, Panc-1 cells; conditions: Homo sapiens, PANC-1, read-out: pAKT inhibition (IC50)
# [2] = tested on: phospho-Ser473-AKT in MiaPaCa-2 cells; assay: Cellular AKT inhibition, Western blot phospho-Ser473-AKT, MiaPaCa-2 cells; conditions: Homo sapiens, MIA PaCa-2, read-out: pAKT inhibition (IC50)
# [3] = tested on: Panc-1 pancreatic cell line; assay: Apoptosis, morphological assay, Panc-1 cells; format: cell-based, human; conditions: Panc-1, morphological assay
# Excerpt: (§1) AKT inhibition leads to cellular apoptosis.
# [4] = tested on: MiaPaca-2 pancreatic cell line; assay: Apoptosis, morphological assay, MiaPaCa-2 cells; format: cell-based, human; conditions: MiaPaca-2, morphological assay
# Excerpt: as §1
# AKT PH domain = AKT PH domain (Homo sapiens (Human), UniProt P31749); assay: SPR spectroscopy direct binding (Biacore 2000); conditions: purified AKT PH domain, SPR (Biacore 2000); NB = not binding
# Procedure: (§2) Binding assays using SPR and an ELISA competitive binding assay were used to measure the binding affinity (KD) of the compounds to all three PH domains. SPR was carried out as described above. […] Purified GST-PH domains were incubated with increasing concentrations of the compounds under anylsis for about 4 hours in 0.2 M carbonate buffer pH 9.4 and were added to the 96-well plate and incubated overnight at 4° C. Following incubation, the plate was washed 4 times with phosphate buffered 0.9% NaCl (PBS), blocked with 3% bovine serum albumin (BSA) in PBS and 0.01% Tween for 1 hour, washed again 4 times with PBS and mouse monoclonal anti-glutathione-S-transferase antibody in 3% BSA (1:2000) was added for 1 hr at room temperature with shaking. The plate was washed 4 times with PBS and an anti-mouse IgG horseradish peroxidase coupled antibody (dilution 1:2000 in 3% BSA) was added for 1 hr. After 4 washes with PBS, 2,2′-azinobis[3-ethylbenzothiazoline-6-sulfonic acid]-diammonium salt (ABST) was added and the reaction was allowed to develop for 30 min.
# HaCat-II,4 cells = assay: Apoptosis (PARP cleavage), HaCaT-II,4 cells; format: cell-based, human; conditions: 10 μM
# Excerpt: (§3) Normal morphogenesis and differentiation features of skin keratinocytes are retained in the HaCaT cultures.
# BxPC-3 pancreatic cancer = assay: Antitumor activity, oral dosing, BxPC-3 xenograft; format: in vivo, scid mice; conditions: BxPC-3, oral
# [5] = format: in vivo; conditions: single doses up to 250 mg/kg; preliminary studies
# Procedure: (§4) This observation was tested using pharmacodynamic and pharmacokinetic studies. […]. […] Western blotting was performed as described above. […].
# PC3 prostate cancer = assay: Antitumor activity, oral dosing, PC3 xenograft; format: in vivo, scid mice; conditions: 125 mg/kg BID × 5 D
# [6] = tested on: phospho-Ser473-AKT in BxPC-3; assay: Cellular AKT inhibition, Western blot phospho-Ser473-AKT, BxPC-3 cells; format: cell-based, human; conditions: BxPC-3 cells, Western blot
# A549 nsc lung cancer = assay: Antitumor activity, oral dosing, A549 xenograft; format: in vivo, scid mice; conditions: 200 mg/kg BID × 10 D
# MCF-7 breast cancer = assay: Antitumor activity, oral dosing, MCF-7 xenograft; format: in vivo, scid mice; conditions: MCF-7, oral
# [7] = tested on: total AKT in scid mouse skin; assay: Topical application, total AKT immunohistochemistry in skin; format: in vivo, scid mice; conditions: 20 mg/ml in 0.1 ml acetone topically; between 1 and 4 hours, reappears after 24 hours
# Procedure: Skin biopsies were taken and immunohistochemistry for AKT was performed on the sections. […] Staining was measured by quantitative immunohistochemistry with correction for non-specific background staining (p<0.05). Phospho-Ser^473-AKT was not detectable in dermal layer. FIG. 15C summarizes the effects of compound over a 24 hour period as determined by Western blot analysis performed as described above.
# HaCaT cells = assay: Apoptosis (PARP cleavage), HaCaT cells; format: cell-based, human; conditions: 10 μM
# Excerpt: as §3
# SKOV-3 ovarian cancer = assay: Antitumor activity, oral dosing, SKOV-3 xenograft; format: in vivo, scid mice; conditions: SKOV-3, oral, 250 mg/kg BID × 10 D
# [8] = Plasma levels of compound 104 (HPLC); format: in vivo, scid mice; conditions: single 125 mg/kg i.p. dose, between 1 and 6 h
# Procedure: as §4
# [9] = tested on: BXPC3 pancreatic tumor cells, MCF-7 breast tumor cells, and A549 nscl lung cancer cells; assay: Antitumor activity of alkyl chain analogs in subcutaneous xenografts (FIG. 9); format: in vivo; conditions: 200 mg/kg twice a day for 10 days
# [10] = tested on: HT-29 colon cancer xenografts; assay: Antitumor activity, HT-29 colon cancer xenografts; format: in vivo, scid mice; conditions: orally for 5 days, daily dose 250 mg/kg
# Procedure: (§5) AKT and phospo-Ser-AKT values are the mean of 4 mice and bars are S.E., *p<0.05, **p<0.01. Additionally, 24 hours after administration there was an unexpected significant decrease in the apparent total AKT concentration compared to an actin loading control.
# [11] = tested on: phospho-Ser473-AKT in HT-29 cells; assay: Cellular AKT inhibition, Western blot phospho-Ser473-AKT, HT-29 cells; format: cell-based; conditions: human HT-29 colon cancer cells
# Procedure: as §1
# (§6) AKT activity was measured by Western blotting using anti-[…] AKT antibody. Downstream targets of AKT were detected also by Western blotting using specific anti-phospho antibodies and anti-actin was used as a loading control.
# [12] = Pharmacokinetics of compound 316, plasma concentrations
# [13] = tested on: phospho-Ser-AKT in HT-29 xenograft tumors; assay: Tumor phospho-Ser-AKT in HT-29 xenografts; format: in vivo, scid mice
# Procedure: as §5
# [14] = tested on: phospho-Ser473 AKT in NIH3T3 cells; assay: Cellular AKT inhibition, phospho-Ser473 AKT, NIH3T3 cells; format: cell-based; conditions: mouse NIH3T3, phospho-Ser473 AKT
# Procedure: as §6
# PH domain of PDK1 = PH domain of PDK1 (Homo sapiens (Human), UniProt O15530); assay: SPR direct binding to PDK1 PH domain; conditions: NB = no measurable binding, read-out: PDK1 PH mKD
# Procedure: as §2
# HT-29 cells [15] = assay: Metabolic stability under cell culture conditions (incubation with HT-29 cells); format: in vitro ADME, human; conditions: for Metabolic half life: incubating with HT-29 cells at maximum DMEM concentration at 37° C.
# Excerpt: Compound 6 was too insoluble to obtain data.
# Solubility = format: physicochemical
# HT-29 cells [16] = assay: Cell survival / cytotoxicity, MTT assay, HT-29 cells; format: cell-based, human; conditions: HT-29 cells; NI = not inhibitory; read-out: Cytotoxicity (IC50 μM)
# IRS1 PH domain = IRS1 PH domain (Homo sapiens (Human), UniProt P35568); assay: SPR direct binding to IRS1 PH domain; conditions: NB = no measurable binding, read-out: IRS1 PH mKD
# Procedure: as §2
# Chain of PH domain of PDK1 (O15530 459-550): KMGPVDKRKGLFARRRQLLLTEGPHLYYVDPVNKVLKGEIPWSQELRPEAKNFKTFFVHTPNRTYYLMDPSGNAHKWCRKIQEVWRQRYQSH
# Chain of IRS1 PH domain (P35568 12-115): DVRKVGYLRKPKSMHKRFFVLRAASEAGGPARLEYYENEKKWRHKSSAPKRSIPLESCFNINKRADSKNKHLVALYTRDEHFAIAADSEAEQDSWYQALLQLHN
# Chain of AKT PH domain (P31749 5-108): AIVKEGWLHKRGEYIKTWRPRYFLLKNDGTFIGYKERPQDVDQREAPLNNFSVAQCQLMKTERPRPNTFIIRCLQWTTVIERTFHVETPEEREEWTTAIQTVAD
smiles,measurement,setting,value
"CC(=O)Nc1ccc(S(=O)(=O)Nc2nncs2)cc1 [Compound 102, N-(4-(N-1,3,4-Thiadiazol-2-ylsulfamoyl)phenyl)acetamide]",IC50,[1],> 50 µM
same,IC50,[2],> 50 µM
same,Apoptosis at 20 μmol/L,[3],6.8 ± 0.9/ %
same,Apoptosis at 20 μmol/L,[4],10.3 ± 2.1%
same,KD,AKT PH domain,did not appear to bind directly
"CCCCCCCCCCCCc1ccc(S(=O)(=O)Nc2nncs2)cc1 [Compound 104, 4-Dodecyl-N-(1,3,4-thiadiazol-2-yl)benzenesulfonamide]",apoptosis,"HaCat-II,4 cells",60%
same,Growth rate mm^3/10 days,BxPC-3 pancreatic cancer; 100 mg/kg BID × 10 D,181 ± 52 mm^3/10 days
same,T/C %,BxPC-3 pancreatic cancer; 100 mg/kg BID × 10 D,64.8%
same,Growth rate mm^3/10 days,BxPC-3 pancreatic cancer; 125 mg/kg BID × 5 D,67 ± 35 mm^3/10 days
same,T/C %,BxPC-3 pancreatic cancer; 125 mg/kg BID × 5 D,29.4%
same,Growth rate mm^3/10 days,BxPC-3 pancreatic cancer; 200 mg/kg BID × 10 D,77 ± 44 mm^3/10 days
same,T/C %,BxPC-3 pancreatic cancer; 200 mg/kg BID × 10 D,27.6%
same,Growth rate mm^3/10 days,BxPC-3 pancreatic cancer; 250 mg/kg BID × 5 D,46 ± 53 mm^3/10 days
same,T/C %,BxPC-3 pancreatic cancer; 250 mg/kg BID × 5 D,20.1%
same,toxicity,[5],not toxic
same,Growth rate mm^3/10 days,PC3 prostate cancer,470 ± 121 mm^3/10 days
same,T/C %,PC3 prostate cancer,60.3%
same,GSK3β and p70S6K phosphorylation,[6],inhibited in a dose-dependent manner
same,Growth rate mm^3/10 days,A549 nsc lung cancer,182 ± 47 mm^3/10 days
same,T/C %,A549 nsc lung cancer,44.1%
same,Apoptosis at 20 μmol/L,[3],40.0 ± 2.9/ %
same,Growth rate mm^3/10 days,MCF-7 breast cancer; 100 mg/kg BID × 10 D,383 ± 139 mm^3/10 days
same,T/C %,MCF-7 breast cancer; 100 mg/kg BID × 10 D,93.4%
same,Growth rate mm^3/10 days,MCF-7 breast cancer; 200 mg/kg BID × 10 D,156 ± 30 mm^3/10 days
same,T/C %,MCF-7 breast cancer; 200 mg/kg BID × 10 D,38.0%
same,Apoptosis at 20 μmol/L,[4],31.3 ± 1.6%
same,Total Akt staining in skin,[7],decreased significantly overtime
same,apoptosis,HaCaT cells,80%
same,Growth rate mm^3/10 days,SKOV-3 ovarian cancer,122 ± 16 mm^3/10 days
same,T/C %,SKOV-3 ovarian cancer,28.3%
same,plasma concentration,[8],a peak corresponding to compound 104 was detected in the plasma
"CCCCc1ccc(S(=O)(=O)Nc2nncs2)cc1 [Compound 155, 4-Butyl-N-(1,3,4-thiadiazol-2-yl)benzenesulfonamide]",antitumor activity,[9],inactive
"CC1=NN(C(=O)c2ccc(Cl)cc2)C(=O)C1/N=N/c1ccc(S(=O)(=O)Nc2ncccn2)cc1 (centres unmarked) [Compound 316, (E)-4-((1-(4-chlorobenzoyl)-3-methyl-5-oxo-4,5-dihydro-1H-pyrazol-4-yl)diazenyl)-N-(pyrimidin-2-yl)benzenesulfonamide]",antitumor activity,[10],no activity
same,IC50,[11],13 µM
same,"toxicity, repeated dose",Toxicity of compound 316; five daily doses of 250 mg/kg i.p.,moderate neutropenia but no other sign of toxicity
same,"toxicity, single dose","Toxicity of compound 316; single dose of up to 250 mg/kg, preliminary studies",no toxicity
same,elimination,[12]; 250 mg/kg,eliminated relatively rapidly over about a 24 hr period
same,peak plasma concentration,[12]; single dose 250 mg/kg i.p.,1.4 µM
same,peak plasma concentration,[12]; single dose 250 mg/kg oral,0.6 µM
same,tumor phospho-Ser-AKT,[13]; 4 hours after a single 250 mg/kg dose,inhibition of tumor phospho-Ser-AKT was observed
same,tumor phospho-Ser-AKT,[13]; 24 hours after a single 250 mg/kg dose,appears to lost
same,IC50,[14],4 µM
CC1=NN(C(=O)c2ccc(C(C)(C)C)cc2)C(=O)C1/N=N/c1ccc(S(=O)(=O)Nc2ncccn2)cc1 (centres unmarked) [Compound 332],Kd,PH domain of PDK1,3570 nM
same,IC50,[11],> 20 µM
same,Metabolic half life,HT-29 cells [15],91 min
same,Solubility,Solubility,28.6 µM
same,IC50,HT-29 cells [16],25 µM
same,IC50,[14],> 20 µM
CC1=NN(C(=O)c2ccc(N)cc2)C(=O)C1/N=N/c1ccc(S(=O)(=O)Nc2ncccn2)cc1 (centres unmarked) [Compound 333],IC50,[11],> 20 µM
same,Kd,IRS1 PH domain,140 ± 20 nM
same,Metabolic half life,HT-29 cells [15],>480 min
same,stability under cell culture conditions,HT-29 cells [15]; over the time period studied,did not appear to breakdown
same,Solubility,Solubility,12.9 µM
CC1=NN(C(=O)c2ccc(O)cc2)C(=O)C1/N=N/c1ccc(S(=O)(=O)Nc2ncccn2)cc1 (centres unmarked) [Compound 360],Kd,PH domain of PDK1,420 nM
same,IC50,[11],> 20 µM
same,Kd,IRS1 PH domain,1740 ± 410 nM
same,Metabolic half life,HT-29 cells [15],138 min
same,Solubility,Solubility,13.1 µM
same,IC50,[14],5 µM
